Test results as given in US20260055118A1, “VISIBLE LIGHT SENSITIVE PHOTOREMOVABLE PROTECTING GROUPS, PREPARATION PROCESS THEREOF, PHOTOACTIVATABLE CONJUGATES COMPRISING THEM AND USES THEREOF” (HUN-REN TERMÉSZETTUDOMÁNYI KUTATÓKÖZPONT, priority 2022, published 2026).

Legend:
[1] = Spectroscopic properties of the target conjugates in PBS; format: physicochemical
Description: All starting materials were obtained from commercial suppliers and used without further purification. Analytical thin-layer chromatography (TLC) was performed on silica gel 60 F254 precoated aluminum TLC plates from Merck. Flash column chromatography was performed on Teledyne Isco CombiFlash® Rf+ automated flash chromatographer with silica gel (25-40 μm) from Zeochem. NMR spectra were recorded on a Varian Inova 500 MHz spectrometer. Chemical shifts (δ) are given in parts per million (ppm) using solvent signals or TMS as the reference. Coupling constants (J) are reported in Hertz (Hz). Analytical RP-HPLC-UV/Vis-MS measurements were employed using a Shimadzu LCMS-2020 instrument applying a Gemini C18 column (100×2.00 mm I.D.) in which the stationary phase is […] with a pore size of 110 Å. The chromatograms were detected by a UV-Vis diode array (190-800 nm) and an ESI-MS detector. The following linear gradient elution profile was applied, 0 min 0% B; 6.5 min 100% B; 7 min 0% B; 8 min. 0% B) with eluent A (2% HCOOH, 5% MeCN and 93% water) and B (2% HCOOH, 80% MeCN and 18% water) at a flow rate of 1.0 mL min-1 at 30° C. The samples were dissolved in MeCN—water mixtures. Spectroscopic measurements were performed on a Jasco FP 8300 spectrofluorometer. Quartz cuvettes with path length of 1 cm were used.
The spectroscopic properties of the target conjugates were determined in PBS. […] Compounds with Q=O have absorption bands in the green-yellow region while Q=CMe2 derivatives absorb in the red (up to 700 nm). All of the compounds have moderate to high absorption coefficients and significant fluorescence. The spectroscopic details can be found in Table 1. In the table, λmax means absorption maximum; λem means fluorescence emission maximum; s means molar absorption coefficient (at the absorption maximum).

[2] = Uncaging quantum yield determination relative to BODIPY reference; format: physicochemical; conditions: calculated from the disappearance of the target conjugate; green light irradiation
Description: The relative photochemical quantum yields of the uncaging reactions together with the degradation quantum yields were determined from the results of the quantitative HPLC-UV experiments. In all cases, green light irradiation was used since all target conjugates absorbed in this range as well as the reference BODIPY. The photochemical quantum yields were determined using the following equation:
[formula] • where • Φu is the photochemical quantum yield of the sample • Φu,ref is the photochemical quantum yield of the reference • k is the obtained reaction rate constant of the photoreaction of the sample • kref is the obtained reaction rate constant of the photoreaction of the reference • c is the concentration of the sample • cref is the concentration of the reference • V is the volume of the sample • Vref is the volume of the reference • a is the absorption correction factor of the sample • aref is the absorption correction factor of the reference
The absorption correction factors (a) were determined from the molar absorption coefficients and the green LED emission data obtained by the fluorimeter. […] In other words, the transmittance at each wavelength together with the emission data of the light source can be used to calculate the percentage of absorbed photons according to the following equation:
[formula] • where • T(λ) is the transmittance at each wavelength (determined from the molar absorption coefficients) • F(λ) is the LED emission at each wavelength • λmin, λmax is the LED emission range.
The rate constants of the photoreactions were determined by considering the reactions monoexponential with an initial linear phase (up to 10-20% degradation). First, the concentration vs. HPLC-UV peak were determined for each cargo moieties. […] The rate constants were determined for both the reference (with known Φu) and the sample. For reference, a commonly known BODIPY derivative was used with a similar phenylacetic acid-derived cargo unit (substrate 7 from REF^40), Φu=0.15%:
The calculated photochemical quantum yields together with uncaging cross-sections or quantum efficiencies (product of the molar absorption coefficient at a given wavelength, shown in parentheses and the photochemical quantum yield) are shown in Table 2. In the table, Φu is the photochemical quantum yield of the release; Φdeg is the photochemical quantum yield of degradation; ε×Φu is the uncaging cross-section or quantum efficiency of the release at a given wavelength in parentheses.

SK-OV-3 cells = experiment: Live cell confocal fluorescence imaging (cell permeability, colocalization); format: cell-based, human; conditions: live SK-OV-3 cells, confocal microscopy
Description: SKOV3 (ATCC HTB-77) cells were maintained in McCoy's 5A (Modified) Medium, HEPES (Gibco 22330021) media supplemented with 10% FBS (Gibco 10500-064), 1% penicillin-streptomycin (Gibco 15140-122). The cells were cultured at 37° C. in a 5% CO2 atmosphere and passaged—using trypsin (Gibco 25300-054)—every 3-4 days up to 20 passages.
SKOV3 ([…]) cells were transferred into μ-Slide 8 well plates (Ibidi 80827) and were incubated for 40 h at 37° C. in a 5% CO2 atmosphere. After 30 min treatment with compounds X1′-SN38 and X2′—SN38 in the concentration of 1 μM and in some cases in combination with 1 nM MitoTracker Deep Red FM (Invitrogen M22426) or 1 nM LysoTracker Deep red (Invitrogen L12492) or 50 nM MitoTracker Red FM (Invitrogen M22425) or 50 nM LysoTracker red DND-99 (Invitrogen L7528). The samples were subjected to microscopy analyses. […]
Due to their high fluorescence, the cell permeability of compounds X1′-SN38 and X2′-SN38 were tested in live SK—OV-3 (human ovarian carcinoma) cells using confocal microscopy. […] The decrease of fluorescence (related to the photolysis reaction) was only observed in the irradiated area. Overall, these experiments serve as evidence for the cell permeability, biocompatibility and excellent ability of this invention to determine the localization of the photoactivatable conjugates via fluorescence microscopy.

CCc1c2c(nc3ccc(OC(=O)N(C)CCN(C)C(=O)OC(C)c4c5ccc(=[N+]6CCCC6)cc-5oc5cc(N6CCCC6)ccc45)cc13)-c1cc3c(c(=O)n1C2)COC(=O)C3(O)CC.[I-] (mixture of isomers) [X1′-SN38]
λem (fluorescence emission maximum) [1]: 594 nm | λmax (absorption maximum) [1]: 575 nm | ε (molar absorption coefficient) ([1]; at the absorption maximum): 61 200 M^−1cm^−1 | Φdeg, degradation quantum yield [2]: 0.15% | cell permeability (SK-OV-3 cells): cell permeable
